This is an account of results in US8609862B2, “Use of an adrenal hormone-modifying agent” (Novartis AG, priority 2010, dated 2013).

Assay [1] deals with T1, Rat CYP11B2 (Rattus norvegicus, UniProt P30099).
T1 construct: made in house; host or cells: V79-4 cell line #305 (stably selected with geneticin and hygromycin); sonicated homogenate, 500 x g supernatant
T1 sequence (P30099 35-510): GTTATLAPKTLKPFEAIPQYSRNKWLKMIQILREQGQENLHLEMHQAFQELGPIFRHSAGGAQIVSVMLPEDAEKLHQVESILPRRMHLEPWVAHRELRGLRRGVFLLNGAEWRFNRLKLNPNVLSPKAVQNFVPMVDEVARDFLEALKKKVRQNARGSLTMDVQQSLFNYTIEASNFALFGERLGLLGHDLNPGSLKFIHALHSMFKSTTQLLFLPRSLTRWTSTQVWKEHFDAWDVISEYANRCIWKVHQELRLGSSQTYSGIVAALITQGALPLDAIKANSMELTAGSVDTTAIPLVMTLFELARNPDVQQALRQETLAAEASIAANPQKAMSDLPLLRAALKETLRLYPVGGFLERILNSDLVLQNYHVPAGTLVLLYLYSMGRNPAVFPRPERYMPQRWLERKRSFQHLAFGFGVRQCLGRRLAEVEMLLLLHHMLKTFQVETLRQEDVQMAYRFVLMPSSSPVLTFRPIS
The assay is described as follows: In vitro rat CYP11B2 assay. Format: biochemical. The conditions noted are these: V79-4 cell homogenate, 11-deoxycorticosterone to aldosterone, SPA. As to the method:
Following 2 days of growth, cells are washed once with PBS, scraped and collected in PBS, and centrifuged at 1,300 rpm for 6 min. […] The sonication procedure is repeated 3 more times, with a 5 min incubation on ice between sonications. The sonicated material is then spun at 500×g for 4 min to remove unbroken cells. The supernatant is brought to a final glycerol concentration of 5%, flash-frozen in liquid nitrogen, and stored at −80° C.
The CYP11B2 assay is performed in 96-well U-bottom non-tissue-culture-treated plates. […] Plates are then centrifuged at 2,400 rpm for 6 min, and 100 μl of supernatant is removed for measurement of aldosterone content by scintillation proximity assay (SPA).
Measurement of aldosterone is performed using a 96-well plate format. […] Anti-mouse PVT SPA beads (50 μl) are then added to each well and incubated for 4 hr at room temperature prior to counting in a Microbeta plate counter. The amount of aldosterone in each sample is calculated by comparing with a standard curve generated using known quantities of the hormone.
Full concentration-response curves of an inhibitor are performed at least 3 times. The IC50 values are derived using a non-linear least squares curve-fitting program from DBS XLfit.

Assay [2] concerns the target T2, CYP11B1 (Rattus norvegicus, UniProt P15393).
T2 construct: from tissue; host or cells: whole animal: conscious male Sprague-Dawley rats under ACTH infusion (the adrenal gland as site of the enzyme comes from the background, b5)
T2 sequence (P15393 25-499): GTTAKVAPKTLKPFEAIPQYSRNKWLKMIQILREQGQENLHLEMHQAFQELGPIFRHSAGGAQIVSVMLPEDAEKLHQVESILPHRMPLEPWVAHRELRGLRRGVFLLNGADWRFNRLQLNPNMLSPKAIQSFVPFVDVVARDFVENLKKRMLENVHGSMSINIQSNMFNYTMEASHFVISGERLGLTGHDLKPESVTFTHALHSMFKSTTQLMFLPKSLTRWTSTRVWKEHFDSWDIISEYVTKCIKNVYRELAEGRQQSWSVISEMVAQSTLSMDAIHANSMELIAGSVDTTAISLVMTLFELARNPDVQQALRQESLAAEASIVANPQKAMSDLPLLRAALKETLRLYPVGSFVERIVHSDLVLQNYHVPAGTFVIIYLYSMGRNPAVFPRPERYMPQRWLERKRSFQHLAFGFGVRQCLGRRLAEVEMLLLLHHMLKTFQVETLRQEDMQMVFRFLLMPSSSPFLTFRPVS
The experiment in a line: In vivo CYP11B1 assay: plasma corticosterone concentration (PCC) in ACTH-infused conscious rats. To be noted: 10 mg/kg p.o., ACTH infusion. As to the method:
(§1) The in vivo effects of compounds on plasma aldosterone concentration (PAC) and plasma glucocorticoid (corticosterone) concentration (PCC) were evaluated in conscious rats.
(§2) Male Sprague-Dawley rats (˜400-600 g body weight) were surgically instrumented with a femoral arterial and venous catheter. The catheters were exteriorized from the lower back through a stainless steel spring and swivel system that enabled the rats to move freely at all times. Rats were allowed at least one week to recover from the surgery before initiating the experiments.
(§3) On the morning of the experiment, a pretreatment blood sample was collected on heparin from the arterial catheter. The blood samples were spun in a refrigerated centrifuge to generate plasma. The plasma was stored frozen at −70° C. until the later measurement of PAC and PCC (by radioimmunoassay). Adrenocorticotropic hormone (ACTH(1-24), referred to herein as ACTH) was then administered as an intravenous (i.v.) bolus (100 ng/kg) followed by a continuous i.v. infusion (30 ng/kg/min) for 9 hours. After one hour of infusion, a baseline (time 0) blood sample was withdrawn from the arterial catheter and processed and stored as described above. The rats were then dosed (typically 0.01 to 100 mg/kg) with the test compound p.o. by oral gavage or parenterally via the arterial catheter (i.a.). Compounds were formulated in an appropriate vehicle (e.g., water (p.o.) or saline (i.a.)) at a physiologically compatible volume (typically 1-2 ml/kg). Additional blood samples were withdrawn at 0.083 (i.a. only), 0.25, 0.5, 1, 2, 3, 4, 5, 6, 7, 8, and 24 hours after dosing with compound and processed and stored as above for later determination of PAC, PCC, and plasma compound concentration (by LC/MS/MS). Oral bioavailability and traditional pharmacokinetic (PK) parameters were estimated from the plasma compound concentrations.
(§4) Based on the plasma compound concentration at each dose, the PK/PD (pharmacodynamic) profiles (reduction of PAC and PCC) of each compound were determined.

Assay [3] concerns the target T3, CYP11B2 (Rattus norvegicus, UniProt P30099).
T3 construct: from tissue; host or cells: whole animal: conscious male Sprague-Dawley rats under ACTH infusion (the adrenal gland as site of the enzyme comes from the background, b5)
T3 sequence (P30099 35-510): T1 sequence (P30099 35-510)
The assay is described as follows: In vivo assay: plasma aldosterone concentration (PAC) in ACTH-infused conscious rats. The conditions noted are these: 10 mg/kg p.o., ACTH infusion. As to the method:
as §1, §2, §3, §4

In assay [4] the target is T4, Rat CYP11B1 (Rattus norvegicus, UniProt P15393).
T4 construct: made in house; host or cells: V79-4 cell line #259 (stably selected with geneticin and hygromycin); sonicated homogenate, 500 x g supernatant
T4 sequence (P15393 25-499): T2 sequence (P15393 25-499)
The assay is described as follows: In vitro rat CYP11B1 assay. The conditions noted are these: V79-4 cell homogenate, 11-deoxycorticosterone to corticosterone, SPA. The format is biochemical. An excerpt:
Complete EDTA-free protease inhibitor tablets were obtained from Roche Applied Science (Indianapolis, Ind.). Dulbecco's modified Eagle medium (DMEM), antibiotic, geneticin, hygromycin, and fetal bovine serum (FBS) were products of Invitrogen (Carlsbad, Calif.). NADPH Regeneration Solution A and Solution B were purchased from BD Biosciences Clontech (Palo Alto, Calif.). Anti-sheep PVT SPA beads and [1,2,6,7-^3H(N)]corticosterone were acquired from Amersham (Piscataway, N.J.) and PerkinElmer (Boston, Mass.), respectively.
For enzyme preparation, #259 cells were seeded in 150 mm dishes in double-selection medium. Following 2 days of growth, cells were washed once with PBS, scraped and collected in PBS, and centrifuged at 1,300 rpm for 6 min. […] The sonication procedure was repeated 3 more times, with a 5 min rest on ice between sonications. The sonicated material was then spun at 500×g for 4 min to remove unbroken cells. The supernatant was brought to a final glycerol concentration of 5%, flash-frozen in liquid nitrogen, and stored at −80° C.
The CYP11B1 assays were performed in 96-well U-bottom non-tissue-culture-treated plates. […] Plates were then centrifuged at 2,400 rpm for 6 min, and 50 μl of supernatant was removed for measurement of corticosterone content by scintillation proximity assay (SPA).
Measurement of corticosterone was performed using a 96-well plate format. […] Anti-sheep PVT SPA beads (50 μl) were then added to each well and incubated overnight at room temperature prior to counting in a Microbeta plate counter. The amount of corticosterone in each sample was calculated by comparing with a standard curve generated using known quantities of the hormone.
Full concentration-response curves of an inhibitor were performed at least 3 times. The IC50 values were derived using a non-linear least squares curve-fitting program from IDBS XLfit.

The subject of assay [5] is adrenal steroidogenesis. The experiment in a line: Pilot single-blind forced-titration study of hormonal effects in patients with primary hyperaldosteronism. Format: in vivo, human. To be noted: oral 0.5 mg twice daily 2 weeks then 1.0 mg twice daily 2 weeks. As to the method: A pilot, single-blind, forced-titration study was performed to assess the hormonal effects of a compound of formula (I), 4-[(5R)-6,7-dihydro-5H-pyrrolo[1,2-c]imidazol-5-yl]-3-fluororbenzonitrile dihydrogen phosphate, in patients with diagnosed primary hyperaldosteronism. The clinical study was designed, implemented and reported in accordance with the ICH harmonized tripartite guidelines for good clinical practice with applicable local regulations. Each patient participated in a screening/washout period, a 2-week placebo run-in period, a 4-week treatment period, and a 1-week placebo wash-out. The treatment period consisted of the oral administration of compound of formula (I) twice daily at a dose of 0.5 mg for two weeks followed by a dose increase to 1.0 mg twice daily for another 2 weeks. Blood samples were taken at baseline, day 1 and 2, day 8, day 15, day 22, day 29 and 30 (all at predose i.e., 12 h after the last dose), and at the final study day 36. Each sample was assessed for aldosterone and immunoreactive active renin, 11-deoxycorticosterone, cortisol, 11-deoxycortisol and adrenocorticotropin (ACTH) after subjects were at rest for at least 60 minutes to avoid any postural or stress-induced value changes. Plasma aldosterone was measured using a commercially available radioimmunoassay kit (DPC, France). Plasma Active Renin was measured using the two monoclonal antibodies 3E8 and 125I-4G1 in a commercially available immunoradiometric kit (CisBio, France). Plasma 11-deoxycorticosterone, cortisol and 11-deoxycortisol were measured using a standardized LC-MS/MS method. Plasma ACTH was measured using a commercially available immunoradiometric kit (CisBio, France).
Statistical analysis of the pharmacodynamic biomarker were summarized using descriptive statistics as well as graphical and/or regression methods.

The term IC50 denotes the concentration that gives 50% inhibition. Read a high IC50 as a need for much substance. For `N#Cc1ccc([C@H]2CCc3cncn32)c(F)c1` (single isomer, unassigned) [4-(6,7-Dihydro-5H-pyrrolo[1,2-c]imidazol-5-yl)-3-fluorobenzonitrile enantiomer B, 4-(6,7-Dihydro-5H-pyrrolo[1,2-c]imidazol-5-yl)-3-fluorobenzonitrile], the figures for the 50% inhibitory concentration (IC50) in assay [1] and in assay [4] were 110 nM and 495 nM, respectively. Besides, the “% Reduction from baseline PCC t = 1 h” value in assay [2] (1 h after dosing) is 24%. Further, the “% Reduction from baseline PCC 8 h” value in assay [2] (8 h after dosing) was 30%. The “% Reduction from baseline PAC t = 1 h” value in assay [3] (1 h after dosing) came out at 65%. Also, the “% Reduction from baseline PAC 8 h” value in assay [3] (8 h after dosing) is listed as 72%.
For the compound `N#Cc1ccc([C@H]2CCc3cncn32)c(F)c1.O=P(O)(O)O` [4-[(5R)-6,7-dihydro-5H-pyrrolo[1,2-c]imidazol-5-yl]-3-fluororbenzonitrile dihydrogen phosphate], in assay [5], the “plasma 11-deoxycorticosterone (P11DOCS)” value is reported as “unexpectedly high build-up”, the “plasma 11-deoxycortisol (P11DOC)” value was “accumulation”, the “plasma ACTH levels” value is reported as “increased ACTH levels” and the “plasma active renin level” value is recorded as “increased active renin level”. For the same compound, in assay [5], the plasma aldosterone result is “potent aldosterone suppression” and the plasma cortisol levels result was “decreasing cortisol levels”.
